Laboratory results published in ChEMBL document CHEMBL1128128, “Relationship between structure and bioavailability in a series of hydroxamate based metalloprotease inhibitors” (Bioorg Med Chem Lett, 1995).

Key:
[1] = Plasma half-life in rats; format: ADME, organism-based; details: rat
[2] = target: T1, Interstitial collagenase (Homo sapiens, UniProt P03956); assay: Evaluated for inhibitory activity against Human fibroblast collagenase (HFC)
T1 sequence (P03956 whole entry): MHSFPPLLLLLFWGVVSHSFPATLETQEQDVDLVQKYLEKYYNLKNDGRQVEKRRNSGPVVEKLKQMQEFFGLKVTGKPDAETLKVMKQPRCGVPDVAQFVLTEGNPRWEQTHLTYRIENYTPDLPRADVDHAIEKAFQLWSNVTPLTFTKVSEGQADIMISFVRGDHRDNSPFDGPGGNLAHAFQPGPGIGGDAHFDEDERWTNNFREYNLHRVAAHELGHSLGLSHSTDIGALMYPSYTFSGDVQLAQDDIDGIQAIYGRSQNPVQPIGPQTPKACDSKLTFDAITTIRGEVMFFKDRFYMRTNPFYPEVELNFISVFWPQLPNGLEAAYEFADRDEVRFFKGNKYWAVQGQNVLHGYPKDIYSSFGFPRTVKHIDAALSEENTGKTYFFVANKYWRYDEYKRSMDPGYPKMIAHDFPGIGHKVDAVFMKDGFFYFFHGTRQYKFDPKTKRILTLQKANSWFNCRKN

[3] = Biliary excretion when administered intravenously at a dose of 5 mg/kg in rats; format: ADME, organism-based; parameters: dose 5 mg/kg, route intravenous; details: rat, bile, iv, read-out: Biliary excretion
[4] = Biliary excretion when administered intravenously at a dose of 2.5 mg/kg in rats; format: ADME, organism-based; parameters: dose 2.5 mg/kg, route intravenous; details: rat, bile, iv, read-out: Biliary excretion
[5] = species: Rattus norvegicus; assay: Plasma half-life in rats; <MQL; format: ADME, organism-based; details: in vivo
[6] = Maximum concentration in portal vein was determined at a concentration of 20 mg/kg in rats; format: ADME, organism-based; parameters: dose 20 mg/kg; details: rat, portal vein blood
[7] = Maximum concentration in portal vein was determined at a concentration of 10 mg/kg in rats; format: ADME, organism-based; parameters: dose 10 mg/kg; details: rat, portal vein blood
[8] = Plasma half-life was determined; format: ADME, cell-free

SMILES: CC(C)C[C@H](CC(=O)NO)C(=O)N[C@@H](Cc1c[nH]c2ccccc12)C(=O)NCCCCOCc1ccccc1
- half-life [1]: 27 min
- Ki [2]: 2 nM
- dose excreted [3]: 99.9%

SMILES: CC(C)C[C@H](CC(=O)NO)C(=O)N[C@@H](Cc1c[nH]c2ccccc12)C(=O)NCC[S+](C)[O-] (stereo not given in full)
- half-life [1]: 7.4 min
- Ki [2]: 2 nM
- dose excreted [3]: 44.8%

SMILES: CC(C)C[C@H](CC(=O)NO)C(=O)N[C@@H](Cc1c[nH]c2ccccc12)C(=O)NCCSCCN1CCOCC1
- half-life [1]: 42.5 min
- Ki [2]: 4 nM
- dose excreted [3]: 30.8%

SMILES: CSCCNC(=O)[C@H](Cc1c[nH]c2ccccc12)NC(=O)[C@@H](CC(=O)NO)CC(C)C
- half-life [1]: 32.4 min
- Ki [2]: 5 nM
- dose excreted [3]: 27.3%

SMILES: CNC(=O)[C@H](Cc1ccc(OC)cc1)NC(=O)[C@@H](CC(=O)NO)CC(C)C
- half-life [1]: 9 min
- dose excreted [3]: 84.1%

SMILES: CC(C)C[C@H](CC(=O)NO)C(=O)N[C@@H](Cc1c[nH]c2ccccc12)C(=O)NCCCCN(C)C
- half-life [1]: 26.6 min
- Ki [2]: 3 nM
- dose excreted [4]: 17.9%

SMILES: CC(C)C[C@H](CC(=O)NO)C(=O)N[C@@H](Cc1c[nH]c2ccccc12)C(=O)NCCSc1ccccc1
- half-life [1]: 33.3 min
- Ki [2]: 3 nM
- dose excreted [3]: 43.9%

SMILES: CC(C)C[C@H](CC(=O)NO)C(=O)N[C@@H](Cc1c[nH]c2ccccc12)C(=O)NCc1ccc(CN(C)C)cc1
- Ki [2]: 4 nM
- dose excreted [4]: 80.7%
- T1/2 [5]: <MQL

SMILES: COCCNC(=O)[C@H](Cc1c[nH]c2ccccc12)NC(=O)[C@@H](CC(=O)NO)CC(C)C
- half-life [1]: 19 min
- Ki [2]: 5 nM
- dose excreted [3]: 59.2%

SMILES: CC(C)C[C@H](CC(=O)NO)C(=O)N[C@@H](Cc1c[nH]c2ccccc12)C(=O)NCCCN(C)C
- half-life [1]: 25 min
- Ki [2]: 3 nM
- dose excreted [3]: 18.1%

SMILES: CSCCCNC(=O)[C@H](Cc1c[nH]c2ccccc12)NC(=O)[C@@H](CC(=O)NO)CC(C)C
- half-life [1]: 37 min
- Ki [2]: 1 nM
- dose excreted [3]: 53%

SMILES: CCSCCNC(=O)[C@H](Cc1c[nH]c2ccccc12)NC(=O)[C@@H](CC(=O)NO)CC(C)C
- half-life [1]: 37.6 min
- Ki [2]: 3 nM
- Cmax [6]: 0.9 µg/mL
- dose excreted [3]: 46%

SMILES: COc1ccc(C(=O)CCCCNC(=O)[C@H](Cc2c[nH]c3ccccc23)NC(=O)[C@@H](CC(=O)NO)CC(C)C)cc1
- half-life [1]: 2.5 min
- Ki [2]: 2 nM
- dose excreted [3]: 74.5%

SMILES: CC(C)C[C@H](CC(=O)NO)C(=O)N[C@@H](Cc1c[nH]c2ccccc12)C(=O)NCCS(N)(=O)=O
- half-life [1]: 17.6 min
- Ki [2]: 6 nM
- dose excreted [3]: 61.3%

SMILES: CC(C)C[C@H](CC(=O)NO)C(=O)N[C@@H](Cc1c[nH]c2ccccc12)C(=O)NCCSCCN(C)C
- half-life [1]: 43.7 min
- Ki [2]: 5 nM
- Cmax [7]: 2.8 µg/mL
- dose excreted [3]: 60.8%

SMILES: CC(C)C[C@H](CC(=O)NO)C(=O)N[C@@H](Cc1c[nH]c2ccccc12)C(=O)NCCS(C)(=O)=O
- half-life [1]: 24 min
- Ki [2]: 3 nM
- dose excreted [3]: 67.2%

SMILES: CC(C)C[C@H](CC(=O)NO)C(=O)N[C@@H](Cc1c[nH]c2ccccc12)C(=O)NCCN(C)C
- Ki [2]: 12 nM
- half-life [8]: 21 min
- dose excreted [3]: 18.9%

SMILES: CC(C)C[C@H](CC(=O)NO)C(=O)N[C@@H](Cc1c[nH]c2ccccc12)C(=O)NCCCCC(=O)O
- half-life [1]: 6.9 min
- Ki [2]: 1 nM
- dose excreted [3]: 108%
